The values that follow come from US9738637B2, “Histone demethylase inhibitors” (Quanticel Pharmaceuticals, Inc., priority 2013, dated 2017).

Structures are written as SMILES. Where two headings read alike, the source gives them in different places.

Test [1] has as its system KDM5A and KDM5B. Briefly: In vitro cell-based assay, ZR-75-1 cell line: tri-methyl H3K4 immuno-blotting (cellular inhibition of KDM5A/B). The note with it: ZR-75-1 breast cancer cells, 72 hours, read-out: IC50 ZR-75-1 cell-MOA. The text has this:
This quantitative immuno-blotting assay measures the amount tri-methylated histone H3 at amino acid Lysine number 4, a specific substrate […] of the direct enzymatic activity of the histone demethylases KDM5A and KDM5B from extracts of the ZR-75-1 breast cancer cell line.
This assay is a fluorometric immunoassay for the quantification of tri-methyl H3K4 extracted from cells treated with test compound and is used as a measure of the cellular inhibition of KDM5A/B.
Cells were left in the presence of test compound for 72 hours. Extracts were prepared containing all of the cellular histone material using detergent based lysis and sonication methods. These lysates were subsequently normalized for total protein content using a colorimetric bicinchonic acid assay (MicroBCA Pierce/Thermo Scientific). Normalized cell extracts were then subjected to typical immuno-blotting procedures using NuPage reagents (Life Technologies). Electrophoretically separated histones were then transferred and immobilized using polyvinylidene difluoride membrane (Immobilon-FL Millipore). The amount of tri-methylated lysine 4 of histone H3 was detected using an antibody specific to the tri-methylated state (Cell Signaling Technologies) and quantified on an infrared imager using a densitometry software package (Odyssey CLx, Image Studio, Li-Cor). This background subtracted densitometry value was reported as a ration of the GAPDH amount for that sample and then calculated as a percent of the DMSO treated sample. The software package XL-fit (IDBS) was then used to calculate a relative IC50 value for the dilution series of a given test compound according to the equation: fit=(D+((Vmax*(x^n))/((x^n)+(Km^n)))).

In test [2] the target is JMJD2C (Homo sapiens (Human), UniProt Q9H3R0). Kind of test: JMJD2C in vitro enzyme inhibition assay (TR-FRET). Format: biochemical. As for the experimental part:
(§1) This assay determines the ability of a test compound to inhibit Jarid1A, Jarid1B, JMJD2C, and JMJD2A demethylase activity.
Reaction product was determined quantitatively by TR-FRET after the addition of detection reagent Phycolink Streptavidin-allophycocyanin (Prozyme) and Europium-anti-di-methylated histone H3 lysine 9 (H3K9me2) antibody (PerkinElmer) in the presence of 5 mM EDTA in LANCE detection buffer (PerkinElmer) at a final concentration of 50 nM and 1 nM, respectively.
The assay reaction was initiated by the following: 2 μl of the mixture of 900 nM H3K9me3-biotin labeled peptide and 6 μM alpha-ketoglutaric acid with 2 μl of 11-point serial diluted inhibitor in 3% DMSO were added to each well of the plate, followed by the addition of 2 μl of 0.9 nM JMJD2C to initiate the reaction. The reaction mixture was incubated at room temperature for 30 minutes, and terminated by the addition of 6 μl of 5 mM EDTA in LANCE detection buffer containing 100 nM Phycolink Streptavidin-allophycocyanin and 2 nM Europium-anti-H3K9me2 antibody.
(§2) The ability of the compounds disclosed herein to inhibit demethylase activity was quantified and the respective IC50 value was determined.

The target of test [3] is Jarid1B (Homo sapiens (Human), UniProt Q9UGL1). Kind of test: Jarid1B in vitro enzyme inhibition assay (TR-FRET). Format: biochemical. On the procedure:
as §1
The reaction mixture was incubated at room temperature for 30 minutes, and terminated by the addition of 6 μl of 5 mM EDTA in LANCE detection buffer containing 50 nM Phycolink Streptavidin-allophycocyanin and 2 nM Europium-anti-H3K4me1-2 antibody.
as §2

Test [4] addresses Jarid1A (Homo sapiens (Human), UniProt P29375). Briefly: Jarid1A in vitro enzyme inhibition assay (TR-FRET). Format: biochemical. Conditions: H3K4me3-biotin peptide. As for the experimental part:
as §1
The enzymatic assay of Jarid1A activity is based upon Time Resolved-Fluorescence Resonance Energy Transfer (TR-FRET) detection.
The assay reaction was initiated by the following: 2 μl of the mixture of 900 nM H3K4me3-biotin labeled peptide and 6 μM alpha-ketoglutaric acid with 2 μl of 11-point serial diluted inhibitor in 3% DMSO was added to each well of plate, followed by the addition of 2 μl of 3 nM Jarid1A to initiate the reaction. The reaction mixture was incubated at room temperature for 30 minutes, and terminated by the addition of 6 μl of 5 mM EDTA in LANCE detection buffer containing 50 nM Phycolink Streptavidin-allophycocyanin and 2 nM Europium-anti-H3K4me1-2 antibody.
as §2

Setting [5] is: TR-FRET, H3K9me3-biotin peptide, read-out: IC50 JNJD2C.
Where [6] appears, read: TR-FRET, H3K4me3-biotin peptide, read-out: IC50 Jarid1B.

Sequence of Jarid1B (Q9UGL1 2-751): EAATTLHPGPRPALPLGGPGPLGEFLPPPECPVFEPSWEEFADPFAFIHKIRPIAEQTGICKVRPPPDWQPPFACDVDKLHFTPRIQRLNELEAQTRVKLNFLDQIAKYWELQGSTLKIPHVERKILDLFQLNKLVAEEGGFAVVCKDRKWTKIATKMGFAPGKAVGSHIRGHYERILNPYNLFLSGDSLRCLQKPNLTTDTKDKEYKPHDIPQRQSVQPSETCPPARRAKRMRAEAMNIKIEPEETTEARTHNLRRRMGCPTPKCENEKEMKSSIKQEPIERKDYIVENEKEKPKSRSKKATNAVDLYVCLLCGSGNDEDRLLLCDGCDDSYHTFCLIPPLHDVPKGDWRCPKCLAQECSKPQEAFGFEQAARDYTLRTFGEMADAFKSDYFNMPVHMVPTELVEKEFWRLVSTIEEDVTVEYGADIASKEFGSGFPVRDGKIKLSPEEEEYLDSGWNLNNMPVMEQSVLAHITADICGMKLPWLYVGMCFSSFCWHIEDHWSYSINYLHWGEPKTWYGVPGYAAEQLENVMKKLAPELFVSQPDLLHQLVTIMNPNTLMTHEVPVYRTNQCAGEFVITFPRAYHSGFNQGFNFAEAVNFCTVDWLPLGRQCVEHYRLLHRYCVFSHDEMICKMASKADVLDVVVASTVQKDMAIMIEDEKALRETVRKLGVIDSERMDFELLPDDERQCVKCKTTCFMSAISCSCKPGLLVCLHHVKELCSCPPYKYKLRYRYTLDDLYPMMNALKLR
Sequence of JMJD2C (Q9H3R0 2-372): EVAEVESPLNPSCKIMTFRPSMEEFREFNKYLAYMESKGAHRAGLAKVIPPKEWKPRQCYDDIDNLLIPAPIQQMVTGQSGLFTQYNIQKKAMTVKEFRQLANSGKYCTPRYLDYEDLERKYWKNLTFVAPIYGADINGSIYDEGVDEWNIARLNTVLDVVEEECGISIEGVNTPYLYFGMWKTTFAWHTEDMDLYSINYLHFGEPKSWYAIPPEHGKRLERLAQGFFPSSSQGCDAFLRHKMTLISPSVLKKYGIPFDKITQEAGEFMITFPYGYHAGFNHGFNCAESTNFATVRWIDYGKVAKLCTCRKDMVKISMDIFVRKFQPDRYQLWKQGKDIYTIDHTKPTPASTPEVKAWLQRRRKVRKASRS
Sequence of Jarid1A (P29375 1-1090): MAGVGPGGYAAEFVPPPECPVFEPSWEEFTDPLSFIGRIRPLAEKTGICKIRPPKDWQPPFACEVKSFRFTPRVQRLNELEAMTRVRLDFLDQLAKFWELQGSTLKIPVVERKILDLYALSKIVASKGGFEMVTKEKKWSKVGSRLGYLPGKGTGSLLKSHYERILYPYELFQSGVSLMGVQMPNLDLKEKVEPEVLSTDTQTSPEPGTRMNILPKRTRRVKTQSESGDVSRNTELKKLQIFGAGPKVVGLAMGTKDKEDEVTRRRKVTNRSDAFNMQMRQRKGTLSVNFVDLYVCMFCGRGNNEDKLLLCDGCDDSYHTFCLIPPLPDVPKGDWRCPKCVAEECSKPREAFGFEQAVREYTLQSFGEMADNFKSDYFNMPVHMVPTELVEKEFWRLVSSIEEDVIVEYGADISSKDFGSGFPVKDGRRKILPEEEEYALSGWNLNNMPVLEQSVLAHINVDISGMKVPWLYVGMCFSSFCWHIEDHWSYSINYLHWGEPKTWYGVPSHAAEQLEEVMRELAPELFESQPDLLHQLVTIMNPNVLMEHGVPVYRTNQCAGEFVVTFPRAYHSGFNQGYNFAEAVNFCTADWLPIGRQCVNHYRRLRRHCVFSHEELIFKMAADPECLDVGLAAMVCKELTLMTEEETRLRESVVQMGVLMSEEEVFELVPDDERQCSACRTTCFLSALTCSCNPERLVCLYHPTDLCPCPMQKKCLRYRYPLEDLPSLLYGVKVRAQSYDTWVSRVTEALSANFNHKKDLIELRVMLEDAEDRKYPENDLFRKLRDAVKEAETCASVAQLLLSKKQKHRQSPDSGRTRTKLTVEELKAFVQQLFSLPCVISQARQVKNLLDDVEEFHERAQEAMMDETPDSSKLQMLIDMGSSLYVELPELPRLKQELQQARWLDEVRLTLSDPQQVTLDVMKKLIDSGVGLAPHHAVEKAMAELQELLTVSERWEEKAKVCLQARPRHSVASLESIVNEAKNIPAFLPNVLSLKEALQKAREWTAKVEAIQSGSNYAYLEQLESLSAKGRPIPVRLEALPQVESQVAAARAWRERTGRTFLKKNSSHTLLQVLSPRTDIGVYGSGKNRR

For the compound `COC(=O)c1ccnc2cc(C(C)(O)c3ccccc3)[nH]c12` (racemic) [Example 45, (±)-methyl 2-(1-hydroxy-1-phenylethyl)-1H-pyrrolo[3,2-b]pyridine-7-carboxylate], the IC50 in test [1] was more than 10000 nM.

For `Cn1nccc1C(O)c1cc2nccc(C(=O)O)c2[nH]1` (racemic) [Example 48, (±)-2-[hydroxy-(2-methylpyrazol-3-yl)methyl]-1H-pyrrolo[3,2-b]pyridine-7-carboxylic acid], the IC50 in test [2] (setting [5]) was less than 100 nM; in test [3] (setting [6]), less than 100 nM; in test [1] it was more than 10000 nM; in test [4] it was less than 100 nM.

For the compound `O=C(O)c1ccnc2cc(C(O)c3ccccc3Cl)[nH]c12` (racemic) [Example 72, (±)-2-[(2-chlorophenyl)-hydroxymethyl]-1H-pyrrolo[3,2-b]pyridine-7-carboxylic acid], the IC50 in test [2] (setting [5]) is 100 to 1000 nM; in test [3] (setting [6]), less than 100 nM; in test [1] it was more than 10000 nM; in test [4] it was less than 100 nM.

As to `Cc1ccccc1OCc1cc2nccc(C(=O)O)c2[nH]1` [Example 66, 2-[(2-methylphenoxy)methyl]-1H-pyrrolo[3,2-b]pyridine-7-carboxylic acid], the IC50 was 100 to 1000 nM in test [2] (setting [5]), less than 100 nM in test [3] (setting [6]), more than 10000 nM in test [1] and less than 100 nM in test [4].

As for `COC(=O)c1ccnc2cc(Cc3ccccc3)[nH]c12` [Example 6, methyl 2-benzyl-1H-pyrrolo[3,2-b]pyridine-7-carboxylate], the IC50 in test [2] (setting [5]), in test [3] (setting [6]), in test [1] and in test [4] was more than 10000 nM in each case.

Take `Cc1cccc(Cc2cc3nccc(C(=O)O)c3[nH]2)c1` [Example 36, 2-[(3-methylphenyl)methyl]-1H-pyrrolo[3,2-b]pyridine-7-carboxylic acid]: the IC50 in test [2] (setting [5]) was less than 100 nM; in test [3] (setting [6]), 100 to 1000 nM; in test [1], more than 10000 nM; in test [4], less than 100 nM.

For `O=C(O)c1ccnc2cc(COc3ccc(Cl)cc3)[nH]c12` [Example 64, 2-[(4-chlorophenoxy)methyl]-1H-pyrrolo[3,2-b]pyridine-7-carboxylic acid], the IC50 in test [2] (setting [5]) was less than 100 nM; in test [3] (setting [6]), less than 100 nM; in test [1] it was 1000 to 10000 nM; in test [4], less than 100 nM.

In the case of `COC(=O)c1ccnc2cc(C(O)C3CCOCC3)[nH]c12` (racemic) [Example 42, (±)-methyl 2-[hydroxy(oxan-4-yl)methyl]-1H-pyrrolo[3,2-b]pyridine-7-carboxylate], the half-inhibitory concentration (IC50) in test [1] was more than 10000 nM.

For the compound `Cc1cccc(OCc2cc3nccc(C(=O)O)c3[nH]2)c1` [Example 74, 2-[(3-methylphenoxy)methyl]-1H-pyrrolo[3,2-b]pyridine-7-carboxylic acid], the IC50 in test [2] (setting [5]) was less than 100 nM; in test [3] (setting [6]), less than 100 nM; in test [1] it was more than 10000 nM; in test [4] it was less than 100 nM.

As for `O=C(O)c1ccnc2cc(Cc3ccc(F)cc3)[nH]c12` [Example 101, 2-[(4-fluorophenyl)methyl]pyrrolo[3,2-b]pyridine-7-carboxylic acid], the half-inhibitory concentration (IC50) is less than 100 nM in test [2] (setting [5]), less than 100 nM in test [3] (setting [6]), more than 10000 nM in test [1] and less than 100 nM in test [4].

Consider `COC(=O)c1ccnc2cc(C3(O)CCCCC3)[nH]c12` [Example 13, methyl 2-(1-hydroxycyclohexyl)-1H-pyrrolo[3,2-b]pyridine-7-carboxylate], for which the IC50 in test [2] (setting [5]), in test [3] (setting [6]) and in test [4] was more than 10000 nM each time.

`COC(=O)c1ccnc2cc(C(C)O)[nH]c12` (racemic) [Example 17, (±)-methyl 2-(1-hydroxyethyl)-1H-pyrrolo[3,2-b]pyridine-7-carboxylate]: the concentration for half-maximal inhibition (IC50) in test [2] (setting [5]), in test [3] (setting [6]) and in test [4] was more than 10000 nM each time.

As to `O=C(O)c1ccnc2cc(C(=O)N3CCCCC3)[nH]c12` [Example 109, 2-(piperidylcarbonyl)pyrrolo[3,2-b]pyridine-7-carboxylic acid], the IC50 in test [2] (setting [5]), in test [3] (setting [6]) and in test [4] was 100 to 1000 nM in each case.

On to `CC(O)(c1ccc(F)cc1)c1cc2nccc(C(=O)O)c2[nH]1` (centres unmarked) [Example 103, 2-[1-(4-fluorophenyl)-1-hydroxyethyl]-1H-pyrrolo[3,2-b]pyridine-7-carboxylic acid], for which the IC50 in test [2] (setting [5]), in test [3] (setting [6]) and in test [4] was less than 100 nM in each case.

`COc1ccc(Cc2cc3nccc(C(=O)O)c3[nH]2)cc1` [Example 59, 2-[(4-methoxyphenyl)methyl]-1H-pyrrolo[3,2-b]pyridine-7-carboxylic acid]: the IC50 in test [2] (setting [5]) was less than 100 nM; in test [3] (setting [6]), 100 to 1000 nM; in test [4] it was 100 to 1000 nM.

With `COC(=O)c1ccnc2cc(C(O)c3ccccc3)[nH]c12` (racemic) [Example 19, (±)-methyl 2-[hydroxy(phenyl)methyl]-1H-pyrrolo[3,2-b]pyridine-7-carboxylate], the IC50 in test [2] was more than 10000 nM; in test [3], more than 10000 nM; in test [4], 1000 to 10000 nM.

With `O=C(O)c1ccnc2cc(Cc3ccc(F)c(Cl)c3)[nH]c12` [Example 112, 2-(3-chloro-4-fluorobenzyl)-1H-pyrrolo[3,2-6]pyridine-7-carboxylic acid], the IC50 in test [2] (setting [5]), in test [3] (setting [6]) and in test [4] was less than 100 nM each time.

On to `O=C(O)c1ccnc2cc(COc3cc(F)cc(F)c3)[nH]c12` [Example 81, 2-[(3,5-difluorophenoxy)methyl]-1H-pyrrolo[3,2-b]pyridine-7-carboxylic acid], for which the IC50 in test [2] (setting [5]), in test [3] (setting [6]) and in test [4] was less than 100 nM each time.

Regarding `O=C(O)c1ccnc2cc(Cc3ccc(Cl)c(F)c3)[nH]c12` [Example 114, 2-(4-chloro-3-fluorobenzyl)-1H-pyrrolo[3,2-b]pyridine-7-carboxylic acid], the IC50 in test [2] (setting [5]), in test [3] (setting [6]) and in test [4] was less than 100 nM throughout.

For the compound `O=C(O)c1ccnc2cc(COc3cc(Cl)cc(Cl)c3)[nH]c12` [Example 83, 2-[(3,5-dichlorophenoxy)methyl]-1H-pyrrolo[3,2-b]pyridine-7-carboxylic acid], the IC50 was 100 to 1000 nM in test [2] (setting [5]), less than 100 nM in test [3] (setting [6]) and less than 100 nM in test [4].

As for `O=C(O)c1ccnc2cc(COc3cccc(F)c3)[nH]c12` [Example 79, 2-[(3-fluorophenoxy)methyl]-1H-pyrrolo[3,2-b]pyridine-7-carboxylic acid], the IC50 in test [2] (setting [5]), in test [3] (setting [6]) and in test [4] was less than 100 nM in each case.

On to `COC(=O)c1ccnc2cc(C(O)c3ccnn3C)[nH]c12` (racemic) [Example 47, (±)-methyl 2-[hydroxy-(2-methylpyrazol-3-yl)methyl]-1H-pyrrolo[3,2-b]pyridine-7-carboxylate], for which the IC50 in test [1] is more than 10000 nM.

As to `O=C(O)c1ccnc2cc(C3(O)CCCCC3)[nH]c12` [Example 14, 2-(1-hydroxycyclohexyl)-1H-pyrrolo[3,2-b]pyridine-7-carboxylic acid], the half-inhibitory concentration (IC50) in test [2] (setting [5]), in test [3] (setting [6]) and in test [4] was 100 to 1000 nM throughout.

In the case of `COC(=O)c1ccnc2cc(CO)[nH]c12` [Example 9, methyl-2-(hydroxymethyl)-1H-pyrrolo[3,2-b]pyridine-7-carboxylate], the IC50 in test [2] (setting [5]), in test [3] (setting [6]) and in test [4] was more than 10000 nM throughout.
